Source: ChEMBL document CHEMBL1201862, “PubChem BioAssay data set” (2004)
The source made the active and inactive calls.

Tests used:
[1] = THP-1 cell cytotoxicity, dose response, cytotoxicity control for Vif-APOBEC3G degradation inhibitor project, THP-1 cells (AID 1117359); assay type: functional; settings: Human immunodeficiency virus 1, THP-1
[2] = target: T1, Calpain-2 catalytic subunit (Sus scrofa, UniProt P43367); test: pig calpain II inhibitor potency, dose response, biochemical, fluorogenic peptide substrate (AID 1420); assay type: functional
T1 sequence (P43367 whole entry): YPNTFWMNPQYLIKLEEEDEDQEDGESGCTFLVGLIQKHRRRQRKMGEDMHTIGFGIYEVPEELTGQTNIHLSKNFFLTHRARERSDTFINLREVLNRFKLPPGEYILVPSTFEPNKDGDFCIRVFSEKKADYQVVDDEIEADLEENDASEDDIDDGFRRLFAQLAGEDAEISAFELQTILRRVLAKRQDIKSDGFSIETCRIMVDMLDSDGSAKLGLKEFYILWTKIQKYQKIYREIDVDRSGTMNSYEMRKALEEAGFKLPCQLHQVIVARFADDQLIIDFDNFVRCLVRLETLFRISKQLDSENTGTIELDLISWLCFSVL

[3] = target: T2, Leucine aminopeptidase (Plasmodium falciparum 3D7, UniProt Q8IL11); test: P. falciparum M17LAP inhibitors, primary screen, biochemical, fluorogenic H-Leu-NHMec substrate, 1536-well (AID 1619); assay type: functional
T2 sequence (Q8IL11 whole entry): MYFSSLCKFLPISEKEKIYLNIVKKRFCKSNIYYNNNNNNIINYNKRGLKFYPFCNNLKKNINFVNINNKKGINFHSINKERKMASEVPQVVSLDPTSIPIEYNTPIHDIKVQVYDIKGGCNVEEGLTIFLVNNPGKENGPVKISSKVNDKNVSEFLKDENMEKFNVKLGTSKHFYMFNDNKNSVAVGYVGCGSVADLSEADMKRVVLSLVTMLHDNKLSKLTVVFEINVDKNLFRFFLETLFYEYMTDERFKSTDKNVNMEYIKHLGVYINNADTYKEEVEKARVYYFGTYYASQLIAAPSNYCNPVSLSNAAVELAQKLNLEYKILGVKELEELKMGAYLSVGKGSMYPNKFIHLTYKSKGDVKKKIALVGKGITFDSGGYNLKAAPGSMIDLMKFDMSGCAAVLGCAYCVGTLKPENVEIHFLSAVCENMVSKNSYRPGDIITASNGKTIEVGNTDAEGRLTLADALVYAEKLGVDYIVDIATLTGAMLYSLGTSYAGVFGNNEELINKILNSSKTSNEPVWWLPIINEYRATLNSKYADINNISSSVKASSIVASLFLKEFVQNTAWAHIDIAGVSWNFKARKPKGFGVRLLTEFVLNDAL

[4] = Vero cell cytotoxicity, dose response, cytotoxicity control for Vif-APOBEC3G degradation inhibitor project, Vero cells (AID 1117358); assay type: functional; settings: Human immunodeficiency virus 1, Vero
[5] = target: Prothrombin (Homo sapiens, UniProt P00734); test: Thrombin 1536 HTS Dose Response Confirmation. [Related pubchem assays: 1046 (Thrombin 1536 HTS; hits were confirmed in this assay)]; assay type: functional
[6] = target: Voltage-dependent T-type calcium channel subunit alpha-1H (Homo sapiens, UniProt O95180); assay type: functional;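 note: channel activity triggered by adding a high calcium stimulation buffer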
Voltage-dependent T-type calcium channel subunit alpha-1H, sequence (O95180 whole entry): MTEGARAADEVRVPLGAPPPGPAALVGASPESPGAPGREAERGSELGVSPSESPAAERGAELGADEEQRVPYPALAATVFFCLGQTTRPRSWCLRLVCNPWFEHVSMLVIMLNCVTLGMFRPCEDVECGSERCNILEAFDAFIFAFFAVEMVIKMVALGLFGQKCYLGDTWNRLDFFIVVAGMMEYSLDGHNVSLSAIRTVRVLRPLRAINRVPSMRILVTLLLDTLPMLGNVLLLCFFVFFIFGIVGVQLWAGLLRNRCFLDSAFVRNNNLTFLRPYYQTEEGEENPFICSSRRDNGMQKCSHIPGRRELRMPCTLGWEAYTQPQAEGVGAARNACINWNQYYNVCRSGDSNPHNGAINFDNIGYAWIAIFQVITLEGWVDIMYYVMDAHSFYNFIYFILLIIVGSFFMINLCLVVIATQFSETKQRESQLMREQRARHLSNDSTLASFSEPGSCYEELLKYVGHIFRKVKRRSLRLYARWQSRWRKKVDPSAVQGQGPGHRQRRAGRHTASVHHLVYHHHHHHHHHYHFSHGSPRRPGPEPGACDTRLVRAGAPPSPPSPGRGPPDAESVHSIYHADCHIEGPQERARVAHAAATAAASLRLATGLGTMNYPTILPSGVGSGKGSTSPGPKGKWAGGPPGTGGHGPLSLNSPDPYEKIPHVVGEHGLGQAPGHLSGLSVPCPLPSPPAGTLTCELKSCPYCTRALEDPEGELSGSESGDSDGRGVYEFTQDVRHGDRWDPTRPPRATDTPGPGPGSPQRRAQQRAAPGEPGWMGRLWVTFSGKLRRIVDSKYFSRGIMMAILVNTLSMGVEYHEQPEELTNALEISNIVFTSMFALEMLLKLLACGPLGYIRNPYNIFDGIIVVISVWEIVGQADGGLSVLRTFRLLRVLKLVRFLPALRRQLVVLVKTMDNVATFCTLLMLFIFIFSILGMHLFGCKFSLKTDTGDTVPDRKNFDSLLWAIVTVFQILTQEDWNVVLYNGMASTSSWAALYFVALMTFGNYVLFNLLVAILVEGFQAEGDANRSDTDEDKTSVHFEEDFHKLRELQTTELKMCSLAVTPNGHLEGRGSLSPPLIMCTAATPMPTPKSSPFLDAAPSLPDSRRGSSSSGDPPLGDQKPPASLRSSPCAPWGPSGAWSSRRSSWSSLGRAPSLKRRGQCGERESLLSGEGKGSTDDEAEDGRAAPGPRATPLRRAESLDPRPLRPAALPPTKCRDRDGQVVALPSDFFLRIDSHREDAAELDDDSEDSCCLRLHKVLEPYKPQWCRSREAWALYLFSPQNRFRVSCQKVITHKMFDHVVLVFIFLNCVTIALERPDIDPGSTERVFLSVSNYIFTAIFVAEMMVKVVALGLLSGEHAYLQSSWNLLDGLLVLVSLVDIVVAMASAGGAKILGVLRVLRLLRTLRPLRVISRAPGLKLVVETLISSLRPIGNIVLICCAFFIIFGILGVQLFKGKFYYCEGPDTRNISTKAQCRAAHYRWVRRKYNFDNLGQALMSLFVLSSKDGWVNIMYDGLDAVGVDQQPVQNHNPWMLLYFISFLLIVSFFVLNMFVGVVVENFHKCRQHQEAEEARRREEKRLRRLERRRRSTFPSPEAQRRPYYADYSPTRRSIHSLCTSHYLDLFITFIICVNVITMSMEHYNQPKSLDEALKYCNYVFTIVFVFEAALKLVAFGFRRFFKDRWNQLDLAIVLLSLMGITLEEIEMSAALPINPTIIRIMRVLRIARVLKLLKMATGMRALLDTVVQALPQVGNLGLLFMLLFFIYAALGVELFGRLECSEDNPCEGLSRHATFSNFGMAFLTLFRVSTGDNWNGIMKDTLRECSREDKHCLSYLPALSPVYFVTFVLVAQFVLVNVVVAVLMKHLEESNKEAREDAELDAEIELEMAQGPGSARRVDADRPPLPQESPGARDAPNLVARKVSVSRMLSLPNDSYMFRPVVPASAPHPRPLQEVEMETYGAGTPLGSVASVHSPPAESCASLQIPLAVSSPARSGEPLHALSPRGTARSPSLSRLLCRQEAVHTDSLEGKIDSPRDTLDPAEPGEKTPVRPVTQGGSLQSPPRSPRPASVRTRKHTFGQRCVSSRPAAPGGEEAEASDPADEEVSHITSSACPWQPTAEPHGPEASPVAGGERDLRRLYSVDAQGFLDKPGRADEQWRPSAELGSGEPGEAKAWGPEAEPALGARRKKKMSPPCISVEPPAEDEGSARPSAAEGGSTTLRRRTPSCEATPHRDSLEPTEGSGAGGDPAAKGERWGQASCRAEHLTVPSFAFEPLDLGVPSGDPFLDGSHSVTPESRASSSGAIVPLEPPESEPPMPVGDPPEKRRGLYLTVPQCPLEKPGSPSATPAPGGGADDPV

[7] = P. falciparum Dd2 growth inhibitors, dose response, SYBR Green, cherry-picked samples (AID 1159567); assay type: functional, cell-based
[8] = target: Eukaryotic translation initiation factor 4E (Mus musculus, UniProt P63073); test: eIF4E–eIF4G protein interaction inhibitors, dose response, biochemical, TR-FRET (AID 855); assay type: functional;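 note: potency for disrupting eIF4E binding to eIF4GI seen as loss of FRET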
Eukaryotic translation initiation factor 4E, sequence (P63073 whole entry): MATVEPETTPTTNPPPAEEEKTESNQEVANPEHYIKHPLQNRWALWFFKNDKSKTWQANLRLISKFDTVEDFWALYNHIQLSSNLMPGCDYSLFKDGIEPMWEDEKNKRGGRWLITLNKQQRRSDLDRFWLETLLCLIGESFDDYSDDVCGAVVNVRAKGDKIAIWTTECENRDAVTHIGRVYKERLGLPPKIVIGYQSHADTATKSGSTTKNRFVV

[9] = A Cell Based Secondary Assay To Explore Cytotoxicity of Compounds that Sensitize Mycobacterium Tuberculosis to Beta-Lactam Antibiotics.; assay type: functional
[10] = test system: Streptococcus; test: Group A Streptococcus viability loss, dose response, counter-screen for streptokinase expression inhibitor project, luminescence, BacTiterGlo (AID 1915); assay type: functional, organism-based;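 note: potency for reduction of bacterial viability or growth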
[11] = test system: H4; test: Luminescence Cell-Based Dose Response HTS to Identify Activators of 5'UTR Stem-Loop Driven Prion Protein mRNA Translation in H4 Neuroglioblastoma Cells. [Related pubchem assays: 1829 (Project Summary), 1814 (Primary HTS)]; assay type: functional; settings: Homo sapiens
[12] = test system: Streptococcus sp. 'group A'; test: growth inhibition of control SK(-) GAS strain, dose response, counter-screen for streptokinase expression inhibitor project, luminescence, kanamycin, BacTiterGlo, confirmation (AID 1900); assay type: functional, organism-based
[13] = Luminescence Cell-Based Dose Confirmation HTS to Identify Activators of 5'UTR Stem-Loop Driven Alpha-Synuclein mRNA Translation in H4 Neuroglioblastoma Cells. [Related pubchem assays: 1829 (Project Summary), 1814 (Primary HTS)]; assay type: functional
[14] = target: T3, Streptokinase A (Streptococcus pyogenes serotype M1, UniProt P10520); test: S. pyogenes streptokinase expression inhibitors, potency, dose response, plasminogen activation absorbance, OD405 (AID 1914); assay type: functional, Streptococcus pyogenes M1 GAS;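 note: secreted streptokinase activity via plasminogen activation per viability signal from cell pellet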
T3 sequence (P10520 whole entry): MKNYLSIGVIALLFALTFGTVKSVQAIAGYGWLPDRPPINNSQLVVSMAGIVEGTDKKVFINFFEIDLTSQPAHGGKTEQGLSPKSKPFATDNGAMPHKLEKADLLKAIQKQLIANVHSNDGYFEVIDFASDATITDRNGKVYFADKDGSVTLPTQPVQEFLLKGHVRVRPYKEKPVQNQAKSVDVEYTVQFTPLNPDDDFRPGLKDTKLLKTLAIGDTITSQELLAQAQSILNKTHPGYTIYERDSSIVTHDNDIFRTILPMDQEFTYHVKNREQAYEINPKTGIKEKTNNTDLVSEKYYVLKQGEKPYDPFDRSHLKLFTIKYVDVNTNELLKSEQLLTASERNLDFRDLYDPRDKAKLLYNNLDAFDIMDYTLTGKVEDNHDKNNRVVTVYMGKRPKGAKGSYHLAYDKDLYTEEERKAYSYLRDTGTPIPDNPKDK

[15] = Luminescence Cell-Based Dose Response HTS to Identify Activators of Luciferase Translation or Activity in H4 […] Cells. [Related pubchem assays: 1829 (Project Summary), 1814 (Primary HTS)]; assay type: functional
[16] = cytotoxicity toward NIH3T3 fibroblasts, dose response, counter-screen, cell-based, ATP luminescence, mouse fibroblasts (AID 2010); assay type: functional;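 note: cells exposed to compound for about 90 hours before reading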
[17] = inhibitors of intracellular T. cruzi replication, confirmation, NIH3T3 host cells, beta-gal luminescence (AID 2044); assay type: functional, cell-based;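 note: intracellular parasites grown in NIH/3T3 mouse fibroblasts as host cells; luminescent beta-galactosidase reporter signal from transgenic T. cruzi replicating inside host cells; inhibitors lower the luminescence signal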
[18] = inhibitors of Vif binding to APOBEC3G peptide, primary screen, biochemical, TR-FRET, GST-Vif 1-94, biotin-A3G peptide, dose response retest (AID 1117319); assay type: functional;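 note: TR-FRET signal of purified GST-Vif binding a biotinylated A3G peptide; inhibitors lower the FRET signal by blocking Vif and A3G binding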
[19] = cytotoxicity in HPDE-C7 cells, cell-based, fluorescence, HTS (AID 430); assay type: functional; settings: Homo sapiens
[20] = cytotoxicity in KRAS-transformed pancreatic duct cells, primary screen, cell-based, fluorescence, HTS (AID 431); assay type: functional; settings: Homo sapiens;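 note: cell line used: HPDE-C7K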
[21] = target: Induced myeloid leukemia cell differentiation protein Mcl-1 (Homo sapiens, UniProt Q07820); assay type: functional
Induced myeloid leukemia cell differentiation protein Mcl-1, sequence (Q07820 whole entry): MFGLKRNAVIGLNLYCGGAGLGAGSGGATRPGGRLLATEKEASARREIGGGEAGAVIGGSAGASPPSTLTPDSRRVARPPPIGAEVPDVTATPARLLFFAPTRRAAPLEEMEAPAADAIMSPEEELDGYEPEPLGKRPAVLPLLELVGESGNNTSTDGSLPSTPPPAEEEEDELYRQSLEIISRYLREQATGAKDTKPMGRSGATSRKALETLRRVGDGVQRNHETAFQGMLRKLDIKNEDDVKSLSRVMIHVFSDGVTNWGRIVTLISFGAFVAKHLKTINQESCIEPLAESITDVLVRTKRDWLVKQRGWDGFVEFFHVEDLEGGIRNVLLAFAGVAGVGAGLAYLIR

Which CC50 [1] does the source give for `O=C(NNc1cc(Cl)cc(Cl)c1)c1c(F)cccc1Cl` here?
The CC50 was > 40 µM (active).

For `c1ccc(CCc2nn3c(C4COc5ccccc5O4)nnc3s2)cc1` (stereo not drawn), which CC50 [1] is on record?
The CC50 was > 40 µM (active).

Which IC50 [2] does the source give for `Cc1cc(N2CCCCC2)nc2ccc(NC(=O)c3ccc(Br)o3)cc12` here?
Its IC50 is 3.3 µM (not active).

For `CCOc1ccc(NC(=O)CSc2nc(N)c(-c3ccccc3)c(=O)[nH]2)cc1`, which IC50 [3] is on record?
The IC50 was 5.72 µM (active).

For `Cn1c(N)c(C(=O)COC(=O)c2ccc(Cl)c(S(=O)(=O)N3CCCCC3)c2)c(=O)n(C)c1=O`, which IC50 [2] is on record?
The IC50 was 29.2 µM (not active).

Which CC50 [4] does the source give for `CCOc1ccc2nc(O)c(CN(Cc3ccco3)C(=O)c3ccc(Br)cc3)cc2c1` here?
The CC50 was 32.4 µM (active).

With `CC(=O)Nc1ccc(S(=O)(=O)n2cnc3cc(C)c(C)cc32)cc1` as the compound, how does the IC50 [5] read?
The IC50 was > 50 µM (not active).

Which EC50 [6] does the source give for `O=C(NC1CCCCC1)N1CCS/C1=N\c1ccccc1` here?
Its EC50 is 7.51 µM (active).

For `COc1ccccc1-c1ccccc1[C@@H]1[C@@H](C#N)N(C(=O)C2CC2)[C@@H]1CO`, which AC50 [7] is on record?
Its AC50 is 17.4 µM (active).

With `COc1cc(/C=N/NC(=O)C2c3ccccc3Oc3ccccc32)ccc1O` as the compound, how does the IC50 [8] read?
The IC50 was > 64 µM (inactive).

Which results are given for `Cc1c(C=O)c(C=O)c(C)n1Cc1ccccc1`?
CC50 [9]: 4.47 µM (active); CC50 [4]: 6.52 µM (active)

With `CC(C)c1ccc(C(=O)NCc2ccc(Cl)cc2)cc1` as the compound, how does the IC50 [8] read?
The IC50 was > 64 µM (inactive).

For `C/C(=N\NC(=O)Cc1c(C)n[nH]c1O)c1ccc2ccccc2c1`, which IC50 [3] is on record?
The IC50 was 14 µM (active).

Which IC50 [3] does the source give for `CC1=NNC(=O)C1CCC(=O)N/N=C\c1ccc(Cl)c(Cl)c1` (stereo not drawn) here?
The IC50 was 15 µM (active).

For `COC(=O)c1c(NC(=O)CC2NCCNC2=O)sc2c1CCCC2` (stereo not drawn), which CC50 [4] is on record?
The CC50 was > 40 µM (active).

For `COc1cccc(-c2nn(C)c3sc(C(=O)Nc4ccc5c(c4)OCCO5)cc23)c1`, which EC50 [10] is on record?
Its EC50 is 13.9 µM (active).

What about the EC50 [11] of the same compound?
The EC50 was > 120 µM (not active).

What about the EC50 [12] of the same compound?
Its EC50 is 6.53 µM (active).

What about the EC50 [13] of the same compound?
Its EC50 is 5.99 µM (active).

And the EC50 [14]?
Its EC50 is > 150 µM (not active).

What about the CC50 [4] of the same compound?
The CC50 was > 40 µM (active).

What about the EC50 [15] of the same compound?
Its EC50 is 22.9 µM (active).

For `O=S(=O)(Nc1ccc(-c2csc(-c3ccccc3)n2)cc1)c1ccc(F)cc1`, which EC50 [16] is on record?
The EC50 was > 60 µM (not active).

What about the EC50 [10] of the same compound?
The EC50 was 5.63 µM (active).

And the EC50 [17]?
The EC50 was 2.45 µM (active).

What about the EC50 [12] of the same compound?
The EC50 was 2.05 µM (active).

What about the EC50 [14] of the same compound?
Its EC50 is 8.48 µM (active).

What about the IC50 [2] of the same compound?
Its IC50 is 8.02 µM (not active).

Which IC50 [18] does the source give for `CCCCC1=CC2=C(c3ccco3)C(=O)C(C)(OC(=O)c3ccc(OC)cc3)C(=O)C2=CN1CCCCO` (stereo not drawn) here?
The IC50 was > 100 µM (active).

With `Cn1c(Cl)nc2c1c(=O)n(Cc1cccc(Br)c1)c(=O)n2C` as the compound, how does the IC50 [5] read?
The IC50 was > 50 µM (not active).

For `O=C1c2ccccc2C(=O)N1CCC(c1ccc(F)cc1)c1ccco1` (stereo not drawn), which IC50 [18] is on record?
Its IC50 is > 100 µM (active).

With `CN1CCN(C(=O)CSc2nc(-c3cccs3)cc(-c3cccs3)c2C#N)CC1` as the compound, how does the EC50 [19] read?
The EC50 was 10 µM (active).

And the EC50 [20]?
Its EC50 is 9.41 µM (active).

For `Cc1ccc(S(=O)(=O)c2nc(-c3ccccc3)oc2NCc2cccnc2)cc1`, which EC50 [6] is on record?
Its EC50 is 8.55 µM (active).

With `COc1ccc(-n2c(=O)[nH]c3ccccc3c2=O)c(OC)c1` as the compound, how does the IC50 [18] read?
The IC50 was > 100 µM (active).

For `COc1cc(C2Nc3cccc4cccc(c34)N2)cc(OC)c1OC(C)=O`, which CC50 [1] is on record?
The CC50 was > 40 µM (active).

And the IC50 [21]?
Its IC50 is 2.8 µM (active).

Which EC50 [6] does the source give for `O=C(Nc1ccccc1)c1nnn(Cc2ccccc2)c1NC(=O)C(F)(F)F` here?
The EC50 was 4.59 µM (active).

For `CC(C)(C)n1nc2c(c1NC(=O)c1ccc(Br)o1)C[S+]([O-])C2` (stereo not drawn), which IC50 [18] is on record?
The IC50 was > 100 µM (active).

With `CCC(=O)Oc1ccc2c(C)c(Cl)c(=O)oc2c1` as the compound, how does the IC50 [5] read?
The IC50 was > 50 µM (not active).

For `COc1ccc(NC(=O)N(C)C[C@@H]2Oc3cc(-c4ccc(C)cc4)ccc3S(=O)(=O)N([C@@H](C)CO)C[C@@H]2C)cc1`, which AC50 [7] is on record?
The AC50 was 3.21 µM (active).

With `Clc1ccc(/C(Cc2nc3ccccc3[nH]2)=N\Nc2ccccc2)cc1` as the compound, how does the CC50 [1] read?
Its CC50 is > 40 µM (active).

Which results are given for `O=C(CCS(=O)(=O)c1cccs1)N1CCCC1`?
EC50 [11]: 17.8 µM (active); IC50 [8]: > 64 µM (inactive); EC50 [13]: > 120 µM (not active); EC50 [15]: > 120 µM (not active)

For `Cn1c(SCC(=O)NCc2ccc3c(c2)OCO3)nnc1C1COc2ccccc2O1` (stereo not drawn), which IC50 [3] is on record?
The IC50 was < 1 µM (active).
